Data published in ChEMBL document CHEMBL3734753, “Phenyl Ether- and Aniline-Containing 2-Aminoquinolines as Potent and Selective Inhibitors of Neuronal Nitric Oxide Synthase” (J Med Chem, 2015).
pKi: −log10 of the molar value.

Columns and labels:
Nitric oxide synthase 1 [1] = target: Nitric oxide synthase 1 (Rattus norvegicus, UniProt P29476); assay: Inhibition of wild type recombinant rat nNOS expressed in Escherichia coli assessed as nitric oxide production by hemoglobin capture assay
Nitric oxide synthase 3 = target: T1, Nitric oxide synthase 3 (Bos taurus, UniProt P29473); assay: Inhibition of recombinant bovine eNOS expressed in Escherichia coli assessed as nitric oxide production by hemoglobin capture assay
T1 sequence (P29473 whole entry): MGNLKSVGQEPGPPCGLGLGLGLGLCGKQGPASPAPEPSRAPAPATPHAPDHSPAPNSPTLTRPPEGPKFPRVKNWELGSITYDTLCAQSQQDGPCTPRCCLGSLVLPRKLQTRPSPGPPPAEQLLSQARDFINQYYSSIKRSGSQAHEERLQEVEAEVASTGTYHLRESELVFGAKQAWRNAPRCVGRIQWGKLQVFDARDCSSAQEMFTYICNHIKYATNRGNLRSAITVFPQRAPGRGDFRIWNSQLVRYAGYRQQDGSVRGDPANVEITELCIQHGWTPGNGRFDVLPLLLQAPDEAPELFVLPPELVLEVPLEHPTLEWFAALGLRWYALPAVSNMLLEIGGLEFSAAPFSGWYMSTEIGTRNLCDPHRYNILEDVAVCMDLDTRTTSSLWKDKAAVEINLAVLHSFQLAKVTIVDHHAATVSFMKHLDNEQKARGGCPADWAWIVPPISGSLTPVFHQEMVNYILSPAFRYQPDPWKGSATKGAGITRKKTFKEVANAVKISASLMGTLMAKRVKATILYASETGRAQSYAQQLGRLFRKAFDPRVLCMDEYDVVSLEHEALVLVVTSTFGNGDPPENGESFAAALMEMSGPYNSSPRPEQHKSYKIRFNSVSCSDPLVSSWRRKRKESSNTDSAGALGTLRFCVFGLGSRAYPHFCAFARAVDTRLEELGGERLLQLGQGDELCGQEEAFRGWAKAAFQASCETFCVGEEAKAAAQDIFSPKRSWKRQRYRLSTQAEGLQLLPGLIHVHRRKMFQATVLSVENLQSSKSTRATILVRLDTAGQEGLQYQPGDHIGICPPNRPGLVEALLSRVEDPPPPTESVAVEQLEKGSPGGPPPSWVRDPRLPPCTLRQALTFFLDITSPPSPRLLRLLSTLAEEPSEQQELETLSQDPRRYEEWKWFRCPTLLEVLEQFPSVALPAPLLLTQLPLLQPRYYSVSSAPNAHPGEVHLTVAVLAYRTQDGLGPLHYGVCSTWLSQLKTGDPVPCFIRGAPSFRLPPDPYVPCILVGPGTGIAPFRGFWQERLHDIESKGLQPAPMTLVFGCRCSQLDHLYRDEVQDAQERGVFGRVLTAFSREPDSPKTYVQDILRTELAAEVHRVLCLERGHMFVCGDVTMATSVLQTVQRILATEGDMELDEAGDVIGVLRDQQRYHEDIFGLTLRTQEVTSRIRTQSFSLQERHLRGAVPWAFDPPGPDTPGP

[2] = target: T2, Nitric oxide synthase, inducible (Mus musculus, UniProt P29477)
T2 sequence (P29477 whole entry): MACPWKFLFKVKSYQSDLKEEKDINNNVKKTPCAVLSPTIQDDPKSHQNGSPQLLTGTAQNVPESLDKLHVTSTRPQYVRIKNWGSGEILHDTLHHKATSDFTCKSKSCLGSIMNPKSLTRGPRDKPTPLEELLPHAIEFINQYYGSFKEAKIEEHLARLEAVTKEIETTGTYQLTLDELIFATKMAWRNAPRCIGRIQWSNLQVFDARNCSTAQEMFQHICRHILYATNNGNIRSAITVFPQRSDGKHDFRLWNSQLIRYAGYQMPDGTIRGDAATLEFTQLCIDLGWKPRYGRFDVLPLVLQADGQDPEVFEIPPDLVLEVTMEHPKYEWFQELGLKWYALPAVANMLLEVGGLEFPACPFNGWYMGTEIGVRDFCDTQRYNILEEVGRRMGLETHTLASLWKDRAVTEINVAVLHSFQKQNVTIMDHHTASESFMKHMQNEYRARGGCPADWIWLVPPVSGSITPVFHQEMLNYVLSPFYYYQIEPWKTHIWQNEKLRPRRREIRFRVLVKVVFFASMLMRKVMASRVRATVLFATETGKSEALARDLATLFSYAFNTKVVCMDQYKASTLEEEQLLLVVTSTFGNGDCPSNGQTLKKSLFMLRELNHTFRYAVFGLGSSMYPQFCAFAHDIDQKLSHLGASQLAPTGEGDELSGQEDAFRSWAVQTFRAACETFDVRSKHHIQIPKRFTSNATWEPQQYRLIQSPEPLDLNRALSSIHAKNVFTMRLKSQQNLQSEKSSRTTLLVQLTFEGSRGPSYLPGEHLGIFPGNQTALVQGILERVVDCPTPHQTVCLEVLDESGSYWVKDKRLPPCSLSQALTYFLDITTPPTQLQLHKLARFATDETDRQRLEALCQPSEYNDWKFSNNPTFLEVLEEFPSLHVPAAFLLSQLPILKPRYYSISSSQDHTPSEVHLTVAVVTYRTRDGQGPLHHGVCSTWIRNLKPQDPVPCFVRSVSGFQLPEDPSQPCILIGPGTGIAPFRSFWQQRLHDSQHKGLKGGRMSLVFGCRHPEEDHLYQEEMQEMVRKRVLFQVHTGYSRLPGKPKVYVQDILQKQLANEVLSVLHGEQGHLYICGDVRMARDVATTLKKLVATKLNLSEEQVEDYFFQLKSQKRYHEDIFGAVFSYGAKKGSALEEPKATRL

[3] = Selectivity ratio of Ki for wild type recombinant rat nNOS to Ki for human nNOS
[4] = Selectivity ratio of Ki for wild type recombinant rat nNOS to Ki for bovine eNOS
Nitric oxide synthase 1 [5] = target: Nitric oxide synthase 1 (Homo sapiens, UniProt P29475)
Nitric oxide synthase 1 (Homo sapiens, UniProt P29475), sequence (P29475 whole entry): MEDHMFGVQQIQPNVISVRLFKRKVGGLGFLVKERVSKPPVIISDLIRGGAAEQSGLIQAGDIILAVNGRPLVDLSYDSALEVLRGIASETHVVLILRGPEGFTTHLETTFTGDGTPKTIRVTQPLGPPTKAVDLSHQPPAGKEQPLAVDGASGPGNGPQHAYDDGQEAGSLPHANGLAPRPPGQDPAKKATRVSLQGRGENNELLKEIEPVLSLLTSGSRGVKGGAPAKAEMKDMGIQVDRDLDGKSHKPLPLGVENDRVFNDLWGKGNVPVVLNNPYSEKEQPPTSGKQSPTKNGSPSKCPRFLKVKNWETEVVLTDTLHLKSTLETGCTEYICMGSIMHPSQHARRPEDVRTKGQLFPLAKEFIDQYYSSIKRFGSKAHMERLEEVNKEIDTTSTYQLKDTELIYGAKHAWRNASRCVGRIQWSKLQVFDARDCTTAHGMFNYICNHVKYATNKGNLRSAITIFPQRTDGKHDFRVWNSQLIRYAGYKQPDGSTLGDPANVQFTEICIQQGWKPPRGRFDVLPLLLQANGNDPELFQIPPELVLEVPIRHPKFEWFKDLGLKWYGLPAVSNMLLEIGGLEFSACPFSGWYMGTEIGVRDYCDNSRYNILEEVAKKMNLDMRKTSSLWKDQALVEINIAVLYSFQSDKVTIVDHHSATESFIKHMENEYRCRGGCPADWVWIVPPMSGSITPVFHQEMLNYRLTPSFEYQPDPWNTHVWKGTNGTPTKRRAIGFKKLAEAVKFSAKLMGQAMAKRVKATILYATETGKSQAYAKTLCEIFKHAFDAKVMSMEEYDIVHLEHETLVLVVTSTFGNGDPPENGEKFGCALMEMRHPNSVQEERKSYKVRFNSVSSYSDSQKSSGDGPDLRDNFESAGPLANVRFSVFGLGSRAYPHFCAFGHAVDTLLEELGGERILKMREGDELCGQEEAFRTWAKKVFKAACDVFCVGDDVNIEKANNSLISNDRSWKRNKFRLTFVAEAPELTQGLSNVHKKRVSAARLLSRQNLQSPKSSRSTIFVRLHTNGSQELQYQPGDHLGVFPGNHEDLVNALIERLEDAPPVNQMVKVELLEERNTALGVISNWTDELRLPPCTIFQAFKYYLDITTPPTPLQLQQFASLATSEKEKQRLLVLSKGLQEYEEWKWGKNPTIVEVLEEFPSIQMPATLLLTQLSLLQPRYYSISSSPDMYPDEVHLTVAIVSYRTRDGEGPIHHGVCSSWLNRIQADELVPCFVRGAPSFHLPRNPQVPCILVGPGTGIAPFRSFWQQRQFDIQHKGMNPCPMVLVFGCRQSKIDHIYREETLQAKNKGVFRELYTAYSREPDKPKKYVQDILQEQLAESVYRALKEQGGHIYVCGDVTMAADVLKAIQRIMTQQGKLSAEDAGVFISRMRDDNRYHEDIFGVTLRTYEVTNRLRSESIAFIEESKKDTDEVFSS

Nitric oxide synthase 1 (Rattus norvegicus, UniProt P29476), sequence (P29476 whole entry): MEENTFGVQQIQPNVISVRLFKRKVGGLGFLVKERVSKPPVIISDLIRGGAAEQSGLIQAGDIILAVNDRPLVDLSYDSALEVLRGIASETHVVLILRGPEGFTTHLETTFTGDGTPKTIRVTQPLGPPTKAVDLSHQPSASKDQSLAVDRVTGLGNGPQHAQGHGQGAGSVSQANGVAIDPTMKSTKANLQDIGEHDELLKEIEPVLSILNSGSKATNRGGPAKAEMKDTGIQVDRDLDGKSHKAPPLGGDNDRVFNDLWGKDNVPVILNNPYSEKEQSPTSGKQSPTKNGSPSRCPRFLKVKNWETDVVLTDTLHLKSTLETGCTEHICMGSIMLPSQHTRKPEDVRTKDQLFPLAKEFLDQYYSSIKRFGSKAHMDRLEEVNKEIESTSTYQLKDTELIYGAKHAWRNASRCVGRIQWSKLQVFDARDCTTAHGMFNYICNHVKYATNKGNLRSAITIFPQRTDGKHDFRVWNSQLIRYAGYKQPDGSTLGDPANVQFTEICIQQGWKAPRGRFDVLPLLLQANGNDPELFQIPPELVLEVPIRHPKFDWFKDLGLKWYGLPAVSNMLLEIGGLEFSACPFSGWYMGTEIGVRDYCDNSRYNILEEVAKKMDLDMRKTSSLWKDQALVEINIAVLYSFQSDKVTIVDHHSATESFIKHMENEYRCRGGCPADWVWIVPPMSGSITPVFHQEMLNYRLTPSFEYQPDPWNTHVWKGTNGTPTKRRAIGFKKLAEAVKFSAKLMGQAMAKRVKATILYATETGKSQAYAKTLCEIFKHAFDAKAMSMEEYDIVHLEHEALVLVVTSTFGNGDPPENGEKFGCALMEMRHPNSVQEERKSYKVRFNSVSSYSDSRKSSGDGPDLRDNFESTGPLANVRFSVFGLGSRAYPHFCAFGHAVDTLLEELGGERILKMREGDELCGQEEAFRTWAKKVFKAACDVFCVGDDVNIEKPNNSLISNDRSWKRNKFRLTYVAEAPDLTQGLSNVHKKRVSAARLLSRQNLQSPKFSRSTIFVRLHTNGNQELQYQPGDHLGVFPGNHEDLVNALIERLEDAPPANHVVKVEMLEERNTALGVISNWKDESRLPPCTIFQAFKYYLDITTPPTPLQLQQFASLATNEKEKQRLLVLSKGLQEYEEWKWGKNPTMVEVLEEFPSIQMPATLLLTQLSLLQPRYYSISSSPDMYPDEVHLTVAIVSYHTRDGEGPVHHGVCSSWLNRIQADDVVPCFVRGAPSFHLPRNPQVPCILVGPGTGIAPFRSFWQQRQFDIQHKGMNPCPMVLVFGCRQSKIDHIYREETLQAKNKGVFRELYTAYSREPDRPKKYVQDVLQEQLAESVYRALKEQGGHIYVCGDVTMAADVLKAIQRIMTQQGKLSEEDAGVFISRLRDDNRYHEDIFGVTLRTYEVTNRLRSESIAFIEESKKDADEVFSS

Structure (SMILES)	pKi (Nitric oxide synthase 1 [1])	pKi (Nitric oxide synthase 3)	pKi [2]	Ratio Ki [3]	Ratio Ki [4]	pKi (Nitric oxide synthase 1 [5])
CN(C)CCc1cccc(OCc2ccc3ccc(N)nc3c2)c1	6.33	4.75	3.82	–	–	–
CNCc1cncc(OCc2ccc3ccc(N)nc3c2)c1	7.37	5.48	4.87	11.8	77	6.29
CN(C)c1cccc(OCc2ccc3ccc(N)nc3c2)c1	< 5.24	–	–	–	–	–
CN(C)CCOc1cccc(OCc2ccc3ccc(N)nc3c2)c1	–	4.51	3.75	–	44	–
CNCc1cccc(NCc2ccc3ccc(N)nc3c2)c1	6.24	–	–	–	–	–
Nc1ccc2ccc(COc3cccnc3)cc2n1	6.15	–	–	–	–	–
CNC(C)c1cccc(OCc2ccc3ccc(N)nc3c2)c1 (racemic)	6.44	–	4.17	–	–	–
CNCc1cc(OCc2ccc3ccc(N)nc3c2)ccc1F	–	–	4.94	–	–	–
CN(C)CCCc1cccc(OCc2ccc3ccc(N)nc3c2)c1	6.19	–	–	–	–	–
CNCc1ccc(OCc2ccc3ccc(N)nc3c2)cc1	6.48	–	4.31	–	–	–
